According to patent US20230416802A1, “SPECIFIC SUBSTRATES AND PRODUCTS OF HSD17B13 AS MARKERS OF LIVER DISEASE AND BIOMARKERS FOR LIVER DISEASE TREATMENT” (INIPHARM, INC., priority 2020, published 2023):

Molecular target: T1, HSD17B13 enzyme (Homo sapiens, UniProt Q7Z5P4)
T1 construct: His; made in house; host or cells: E. coli
T1 sequence (Q7Z5P4 20-300): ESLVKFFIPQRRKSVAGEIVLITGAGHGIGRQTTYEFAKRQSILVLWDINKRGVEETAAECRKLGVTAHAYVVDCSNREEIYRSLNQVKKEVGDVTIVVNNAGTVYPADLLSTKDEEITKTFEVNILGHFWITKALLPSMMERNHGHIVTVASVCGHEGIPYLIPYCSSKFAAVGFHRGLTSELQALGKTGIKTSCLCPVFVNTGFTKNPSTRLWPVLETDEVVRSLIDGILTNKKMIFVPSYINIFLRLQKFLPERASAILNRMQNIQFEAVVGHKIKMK
Assay: HSD17B13 activity assay using NADH fluorescence
Assay type: biochemical
Conditions: substrate at 3.3 μM; activity relative to positive control LTB3
Method: A fluorescence based HSD17B13 activity assay was used to monitor the fluorescence of NADH, which is generated from NAD+ during the dehydrogenation of the substrate LTB3 or other substrates. Reactions were performed in a 384-well plates (Greiner; #655076) in a 20 μl reaction volume containing the following reagents (final concentrations): 3 mM NAD^+ (Sigma; #N0623); 125 nM HSD17B13 enzyme (in-house E. coli expressed His-tagged, purified, soluble protein); 1 M potassium phosphate buffer, pH 7.4; 1% DMSO; and a range of substrate concentrations ([…]). Reactions proceeded for […] at 26.5° C. Generation of NADH was measured as the fluorescence signal (Excitation at 340 nm and Emission at 445 nm) at 3 hours minus the baseline fluorescence at t=0. Fluorescence signals in the absence of added substrate (negative control values), were subtracted from all values so that the results reflected substrate-dependent production of NADH. NADH standards were included to allow the conversion of relative fluorescence units into rates of enzyme activity. Ten concentrations of substrate were tested (in the range of 30 mM-2.5 nM), and two independent assessments were performed at each concentration. Activity was compared to the positive control, LTB3, at a concentration of […]. Results are reported as the ratio: [Activity of compound at 30 mM]/[Activity of LTB3 at […]].

`CCCCCCCCCCCC(=O)SCCNC(=O)CCNC(=O)[C@H](O)C(C)(C)COP(=O)(O)OP(=O)(O)OC[C@H]1O[C@@H](n2cnc3c(N)ncnc32)[C@H](O)[C@@H]1OP(=O)(O)O` [Lauryl coenzyme A, S-[2-[3-[[(2R)-4-[[[(2R,3S,4R,5R)-5-(6-aminopurin-9-yl)-4-hydroxy-3-phosphonooxyoxolan-2-yl]methoxy-hydroxyphosphoryl]oxy-hydroxyphosphoryl]oxy-2-hydroxy-3,3-dimethylbutanoyl]amino]propanoylamino]ethyl] dodecanethioate] was tested, and the “Relative oxidation (%) at 3.3 μM” value was 35 (AT 3.3 μM) %.

Same assay, conditions: substrate at 10 μM; activity relative to positive control LTB3

With `CC(C(=O)O)C(=O)SCCNC(=O)CCNC(=O)[C@H](O)C(C)(C)COP(=O)(O)OP(=O)(O)OC[C@H]1O[C@@H](n2cnc3c(N)ncnc32)[C@H](O)[C@@H]1OP(=O)(O)O` (stereo partly drawn) [Methyl malonyl coenzyme A, (9R)-1-[(2R,3S,4R,5R)-5-(6-Amino-9H-purin-9-yl)-4-hydroxy-3-(phosphonooxy)oxolan-2-yl]-3,5,9-trihydroxy-8,8,20-trimethyl-3,5,10,14,19-pentaoxo-2,4,6-trioxa-18-thia-11,15-diaza-3λ5,5λ5-diphosphahenicosan-21-oic acid] the “Relative oxidation (%) at 10 μM” value was 29 (at 10 μM) %.

Same assay, conditions: substrate at 30 μM; activity relative to positive control LTB3; NADH production by purified HSD17B13

Point of comparison: `CC[C@@H](O)/C=C/C=C\C[C@@H](O)/C=C/C=C/C=C\[C@@H](O)CCCC(=O)O` [Resolvin E1, 5S,12R,18R-trihydroxy-6Z,8E,10E,14Z,16E-eicosapentaenoic acid], “Relative oxidation at 30 μM (%)” value 45%. Against it:
- CCCCC/C=C\C[C@@H](O)/C=C/C=C\C/C=C\CCCC(=O)O [12(R) HETE] — higher, 60%
- CC/C=C\C[C@H](O)/C=C/C=C\C=C\[C@@H](O)C/C=C\C/C=C\CCC(=O)O [Protectin DX, 10(S),17(S)-dihydroxy-4Z,7Z,11E,13Z,15E,19Z-docosahexaenoic acid] — higher, 105%
- CC/C=C\C/C=C\C[C@H](O)\C=C/C=C/C=C/[C@H](O)C/C=C\CCC(=O)O [Maresin 1, 7R,14S-dihydroxy-4Z,8E,10E,12Z,16Z,19Z-docosahexaenoic acid] — lower, 22%
- CC/C=C\C[C@H](O)/C=C/C=C\C=C\C=C\[C@@H](O)[C@@H](O)C/C=C\CCC(=O)O [Resolvin D1, 7S,8R,17S-trihydroxy-4Z,9E,11E,13Z,15E,19Z-docosahexaenoic acid] — higher, 135%
- CCCCC[C@@H](O)/C=C/C=C\CCCCCCCCCC(=O)O [15 (R) HEDE] — higher, 46%
- CCCCCCCC[C@@H](O)/C=C/C=C\C=C\[C@@H](O)CCCC(=O)O [Leukotriene B3 (LTB3), 5S,12R-dihydroxy-6Z,8E,10E-eicosatrienoic acid] — higher, 100%
